# Test results published in publication PMC4747340, “A new class of small molecule estrogen receptor-alpha antagonists that overcome anti-estrogen resistance” (Oncotarget, 2015).
# Counter-ions that a name gives are not always drawn. Like-named read-outs stand apart in the source and are kept apart here.
# How the values were obtained:
# [1] = MTT assay of cell viability; type: cell-based; settings: human, MCF-7 cells, 24-hr exposure, relative to untreated control
# Procedure: Figure 3 Cytotoxicity and specificity of compounds A., B. Subconfluent proliferating cells were incubated with the indicated compound at the indicated concentration for 24-hr and then harvested for MTT dye reduction assays. Cell viability values (relative to untreated control cells) are means ± SEMs of 10 replicate wells. C., D. Subconfuent proliferating T47D cells were transfected overnight with the MMTV-Luc reporter (0.25 μg per well in 24-well dishes), washed, and allowed to recover for several hr in fresh medium. The cells were then treated with a synthetic progestin (R5020, 10 nM) plus the indicated compound at the indicated concentration for 24 hr and then harvested for luciferase assays. Luciferase activity is expressed relative to the MMTV-Luc control (no agents added) (panel A) or as a percentage of the +R5020 positive control (panel B). Values are means ± SEMs of four replicate wells. The data shown in each panel are representative of three independent experiments.
# Assays were performed as described before. After the indicated treatment, cells in 96-well dishes were solubilized and assayed for MTT dye reduction. Cell viability was expressed as the amount of dye reduction relative to untreated control cells. and calculated as means ± SEMs for 10 replicate wells.
# [2] = target: T1, estrogen receptor-alpha (ER) (Homo sapiens, UniProt P03372); assay: constitutive ER activity, ERE-TK-Luc reporter, in anti-estrogen resistant LCC9 cells; type: cell-based; set-up: LCC9 cells in 24-well dishes were transfected overnight with the ERE-TK-Luc reporter plasmid; endogenous in cells; host or cells: LCC9; settings: LCC9, no E2, 24 hr; read-out: IC50 for inhibition of ER activity in LCC9
# T1 sequence (P03372 1-595): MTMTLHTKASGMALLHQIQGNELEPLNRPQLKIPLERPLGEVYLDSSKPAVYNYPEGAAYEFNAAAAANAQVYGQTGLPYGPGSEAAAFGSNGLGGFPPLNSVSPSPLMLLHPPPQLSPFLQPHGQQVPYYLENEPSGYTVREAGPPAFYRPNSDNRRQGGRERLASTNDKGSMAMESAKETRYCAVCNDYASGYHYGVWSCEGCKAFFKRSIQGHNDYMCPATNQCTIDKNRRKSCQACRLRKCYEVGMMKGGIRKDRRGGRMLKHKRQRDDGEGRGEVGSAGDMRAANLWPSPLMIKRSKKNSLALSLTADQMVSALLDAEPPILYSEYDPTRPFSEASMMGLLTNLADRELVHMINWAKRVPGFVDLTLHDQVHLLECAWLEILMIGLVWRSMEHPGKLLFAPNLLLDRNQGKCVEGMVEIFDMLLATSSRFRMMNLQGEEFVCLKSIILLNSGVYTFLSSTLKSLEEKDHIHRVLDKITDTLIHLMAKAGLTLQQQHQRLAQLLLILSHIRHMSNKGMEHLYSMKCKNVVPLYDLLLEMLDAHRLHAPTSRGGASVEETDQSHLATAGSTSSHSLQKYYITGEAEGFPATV
# Procedure: (§1) For MCF-7, luciferase activity is expressed as a fold-change relative to the no E2 control. For LCC9, luciferase activity is expressed relative to the control without the reporter present. Values plotted are means ± SEMs of four replicate wells. The data shown in each panel are representative of three independent experiments.
# The cells were then treated with the indicated concentrations of the six bioactive compounds or vehicle only (DMSO) for 24-hr and assayed for luciferase activity. Luciferase activity is expressed as a percentage of the DMSO control. Values are means ± SEMs of four replicate wells. The data shown in each panel are representative of three independent experiments.
# The cells were then harvested for luciferase assays. Luciferase activity was expressed as a fold-change relative to the no reporter control. Values plotted are means ± SEMs of four replicate wells. The data shown are representative of three independent experiments.
# (§2) Subconfluent cells in 24-well dishes were transfected overnight with 0.25 μg of each indicated vector plus the ERE-TK-Luc reporter in serum-free DMEM containing Lipofectamine2000 (Life Technologies, Washington, DC). Total transfected DNA was kept constant by addition of control vector. The cells were washed, incubated in phenol red-free DMEM containing 5% charcoal-stripped serum (obtained from the Tissue Culture Shared Resource) (0.2 ml/well) ± E2 (10 nM) ± the indicated compound for 24-hr, and harvested for luciferase assays. For each assay condition was tested in quadrupicate. To monitor the transfection efficiency, cultures were co-transfected with plasmid pRSV-β-gal (Promega, Madison, WI) to visualize transfected cells by X-gal staining.
# [3] = target: T1, estrogen receptor-alpha (ER); assay: ER activity, ERE-TK-Luc reporter, in MCF-7 cells; type: cell-based; set-up: MCF-7 cells in 24-well dishes were transfected overnight with the ERE-TK-Luc reporter plasmid; endogenous in cells; host or cells: MCF-7; settings: for IC50: read-out: IC50 for inhibition of E2-stimulated ER activity
# Procedure: as §1
# The cells were then treated ± 17β-estradiol (E2, 10 nM) and with the indicated compound (@ 1 μM or 20 μM) or vehicle only (DMSO) for 24 hr and assayed for luciferase activity. Luciferase activity is expressed as a fold-change relative to the no E2 control. The data shown are representative of three independent experiments.
# as §2
# [4] = system: LCC9 cells; assay: cell proliferation assay (cell counts days 1, 3, 5), LCC9; type: cell-based, human; settings: DMEM + 5% charcoal-stripped serum, up to 5 days; 4631-P/1 at 1 μM
# Procedure: Starting on day 1, cells were refed daily with fresh medium (DMEM plus 5% CSS) containing the indicated agent. In panel F, the cells were refed with medium also containing ER-siRNA or control-siRNA (100 nM) at the indicated times. Wells were counted on days 1, 3, and 5 to determine cell numbers. Values are means ± SEMs of triplicate wells. The data shown in each panel are representative of three independent experiments.
# Assays were performed using as the growth medium phenol red-free DMEM containing 5% charcoal-stripped serum. Briefly, proliferating cells were harvested using trypsin, counted, inoculated into 12-well dishes at 1 × 10^4 cells per well on day 0 and allowed to attach and recover for 24 hr. The cells were then treated with the indicated agents for up to five days, with daily refeeding with fresh medium and agents. Triplicate wells were counted by Coulter Counter on days 1, 3, and 5. For experiments using siRNAs, cells were treated with the indicated siRNA (100 nM) starting on day -2, and fresh siRNA was added on days 0, 2, and 4.
# [5] = system: LCC9 tumor xenografts; assay: LCC9 tumor xenograft growth in Balb/c nude mice; type: in vivo
# Procedure: Figure 13 Compound NSC 35446 hydrochloride salt inhibits the growth of LCC9 breast cancer xenografts in athymic nude mice Experiments were performed as described in the Methods and Results sections. The effects of the compound administered intraperitoneally every other day at 5 mg/kg A., 10 mg/kg B., and 20 mg/kg C. are shown and compared with that of vehicle only (control, CT). Values of tumor volume are means ± SDs for N=5 mice per group. Athymic Balb/c nude mice were purchased from Charles River. Mice were housed 5 per cage with microisolater tops and provided food (Furina mice chow) and water ad libitum. The light cycle was regulated automatically (12 hours light/dark cycle) and temperature 23±1°C. Animals were allowed to acclimate to this environment for one week prior to usage. The Georgetown University Animal Care and Use Committee approved all animal studies in accordance with NIH guidelines. The stock solution of NSC 35446 hydrochloride was dissolved in DMSO at 200 mg/ml. The working solution was prepared using 10% Kolliphor ELP (Sigma-Aldrich), 3% PEG400 (Hampton Research, HR2-603); and 87% PBS to give a 1 mg/ml solution. Female Balb/c nude mice (18-22g) were injected with LCC9 cells (3 × 10^6 cells in a volume of 0.3 ml) in the subcutaneous tissue of the right axillary region. The mice were randomly sorted into groups with N=5 mice per group; and treatments were initiated when the tumors reached 150-200 mm^3. The tumor-bearing mice were given intraperitoneal injections of vehicle only (control), 5 mg/kg, 10 mg/kg, or 20 mg/kg of NSC 35446 hydrochloride every other day. The tumor size of each mouse was measured by caliper and calculated by the formula: length × width × width/2 and the body weight was recorded.
# [6] = body weight and signs of acute toxicity in tumor-bearing Balb/c nude mice; type: in vivo; settings: 5, 10 or 20 mg/kg intraperitoneally every other day, 21-day study interval
# Procedure: For these studies we used LCC9 cells grown as subcutaneous tumors in Balb/c nude mice. To improve water solubility, the compound tested (NSC 35446) was prepared as the hydrochloride salt, as described in the Methods section. The mice were dosed intraperitoneally with vehicle (control) or NSC 35446 hydrochloride every other day at 5, 10, or 20 mg/kg. Treatments were initiated when the tumors reached 150-200 mm^3. […] For most time points except the earliest, differences in size between the treated and control tumors were significant (P < 0.05, ANOVA, Tukey's multiple comparison test). There appeared to be some delay in tumor growth at the 5 mg/kg dose; but by day 21, the treated tumors were approaching the control tumors in size. The T/C ratios (ie., ratios of the changes in volume of treated tumors to that of control tumors) on day-21 were: 0.77 (5 mg/kg), 0.24 (10 mg/kg), and 0.15 (20 mg/kg).
# Athymic Balb/c nude mice were purchased from Charles River. Mice were housed 5 per cage with microisolater tops and provided food (Furina mice chow) and water ad libitum. The light cycle was regulated automatically (12 hours light/dark cycle) and temperature 23±1°C. Animals were allowed to acclimate to this environment for one week prior to usage. […] The tumor size of each mouse was measured by caliper and calculated by the formula: length × width × width/2 and the body weight was recorded.
# [7] = MCF7, MCF-7, E2 10 nM, compound 1 μM, 24 hr, read-out: inhibition of E2-stimulated ER activity at 1 μM
smiles,measurement,setting,value
CC(C)=CC1C(COC(=O)c2cc3c(cc2Cl)OCO3)C1(C)C (centres unmarked) [48693-K/1],"viability at 24 h, 1 µM",[1],100%
same,"viability at 24 h, 20 µM",[1],> 90%
same,IC50,[2],4000 nM
same,inhibition at 1 µM,"[3]; MCF7, read-out: inhibition of E2-stimulated ER activity at 1 μM",≥ 50%
same,IC50,"[3]; MCF-7, E2 10 nM, 24 hr",≤ 1000 nM
Sc1ccc2ccccc2c1CNCc1ccccc1 [81747-N/1],"viability at 24 h, 1 µM",[1],100%
same,"viability at 24 h, 20 µM",[1],> 90%
same,IC50,[2],30000 nM
same,inhibition at 1 µM,[3]; [7],≥ 50%
same,IC50,"[3]; MCF-7, E2 10 nM, 24 hr",≤ 1000 nM
c1ccc2c(c1)-c1ccccc1C2N1CC2CCC(CC2)C1 [88999-U/1],IC50,[2],≤ 1000 nM
same,inhibition at 1 µM,[3]; [7],≥ 50%
same,IC50,"[3]; MCF-7, E2 10 nM, 24 hr",≤ 1000 nM
OCC(CCc1c[nH]c2ccccc12)c1c[nH]c2ccccc12 (centres unmarked) [372127-T/1],IC50,[2],≤ 1000 nM
same,IC50,"[3]; MCF-7, E2 10 nM, 24 hr",≤ 1000 nM
same,inhibition of E2-stimulated ER activity at 1 μM,"[3]; MCF-7, E2 10 nM, compound 1 μM, 24 hr",≥ 50%
"C[C@]12CC[C@@H]3c4ccc(O)cc4CC[C@H]3[C@@H]1CC[C@@H]2O [E2, 17β-estradiol, reference compound]","effect on LCC9 cell growth, single agent",[4],Neither E2 nor Tam significantly altered growth of LCC9
"O=C(CC(c1ccccc1)N1CCCCC1)c1ccccc1 (centres unmarked) [NSC 35446 hydrochloride, 1,3-diphenyl-3-(piperidin-1-yl)propan-1-one]",T/C ratio (change in volume of treated tumors to control tumors) on day-21,[5]; 5 mg/kg intraperitoneally every other day,0.77
same,T/C ratio (change in volume of treated tumors to control tumors) on day-21,[5]; 10 mg/kg intraperitoneally every other day,0.24
same,T/C ratio (change in volume of treated tumors to control tumors) on day-21,[5]; 20 mg/kg intraperitoneally every other day,0.15
same,effect on LCC9 tumor growth,"[5]; intraperitoneally every other day, 21-day study",efficacious at the 10 mg/kg and 20 mg/kg doses in slowing tumor growth or causing tumor stasis
same,body weight and signs of acute toxicity,[6],No significant changes in body weight or obvious signs of acute toxicity
"CC/C(=C(\c1ccccc1)c1ccc(OCCN(C)C)cc1)c1ccccc1 [Tam, Tamoxifen, reference compound]","effect on LCC9 cell growth, single agent",[4],Neither E2 nor Tam significantly altered growth of LCC9
